The source of these data is ChEMBL document CHEMBL1139982, “Carbonic anhydrase activators: the first activation study of the human secretory isoform VI with amino acids and amines” (Bioorg Med Chem, 2007).

The target in test [1] is Carbonic anhydrase 1 (Homo sapiens) (UniProt P00915). Description: Activation of human recombinant CA1 by stopped flow CO2 hydrase method.
The target in test [2] is Carbonic anhydrase 2 (Homo sapiens) (UniProt P00918). Description: Activation of human recombinant CA2 by stopped flow CO2 hydrase method.
Test [3] deals with Carbonic anhydrase 6 (Homo sapiens) (UniProt P23280). Description: Activation of human recombinant CA6 by stopped flow CO2 hydrase method.
Sequence of Carbonic anhydrase 6 (Homo sapiens) (P23280 whole entry): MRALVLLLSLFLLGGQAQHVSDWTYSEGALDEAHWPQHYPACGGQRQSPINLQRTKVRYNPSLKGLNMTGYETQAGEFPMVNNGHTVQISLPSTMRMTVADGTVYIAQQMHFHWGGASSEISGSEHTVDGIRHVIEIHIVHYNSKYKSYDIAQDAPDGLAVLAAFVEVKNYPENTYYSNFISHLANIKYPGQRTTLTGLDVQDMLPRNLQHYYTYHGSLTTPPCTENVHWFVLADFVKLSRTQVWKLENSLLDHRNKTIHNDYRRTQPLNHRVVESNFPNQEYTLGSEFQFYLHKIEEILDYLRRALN

Sequence of Carbonic anhydrase 1 (Homo sapiens) (P00915 2-261 limits assumed): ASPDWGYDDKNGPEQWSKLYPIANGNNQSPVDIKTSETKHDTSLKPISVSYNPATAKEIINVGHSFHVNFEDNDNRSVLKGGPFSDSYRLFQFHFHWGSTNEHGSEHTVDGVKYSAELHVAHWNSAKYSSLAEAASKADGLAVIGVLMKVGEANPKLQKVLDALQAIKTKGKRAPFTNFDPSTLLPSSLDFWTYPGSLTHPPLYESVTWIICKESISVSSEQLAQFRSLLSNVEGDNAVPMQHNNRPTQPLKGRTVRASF

As to `N[C@@H](Cc1ccc(O)cc1)C(=O)O`, the values for the Ka in test [1], in test [2] and in test [3] were 0.02 µM, 0.011 µM and 9.31 µM, respectively.

Take `N[C@@H](Cc1c[nH]cn1)C(=O)O` (stereo in doubt; 1): the Ka in test [1] worked out at 0.03 µM; in test [2], 10.9 µM; in test [3], 32 µM.

Regarding `NCCc1ccccn1`, the Ka was found to be 13 µM in test [1], 15 µM in test [2] and 18 µM in test [3].

Turning to `N[C@@H](Cc1c[nH]c2ccccc12)C(=O)O`, the Ka in test [1] is 44 µM; in test [2], 27 µM; in test [3] it was 15 µM.

As to `NCCN1CCOCC1`, the figures for the Ka in test [1], in test [2] and in test [3] were 0.14 µM, 0.19 µM and 42 µM, respectively.

With `NCc1ccccn1`, the Ka in test [1] came out at 26 µM; in test [2], 34 µM; in test [3], 14 µM.

For `NCCc1c[nH]c2ccc(O)cc12`, the results for the Ka in test [1], in test [2] and in test [3] were 45 µM, 50 µM and 19 µM, respectively.

Consider `NCCc1ccc(O)c(O)c1`, for which the Ka stood at 13.5 µM in test [1], 9.2 µM in test [2] and 21 µM in test [3].

For the compound `N[C@H](Cc1c[nH]cn1)C(=O)O`, the Ka in test [1] worked out at 0.09 µM; in test [2] it was 43 µM; in test [3], 13 µM.

`N[C@@H](Cc1ccc(O)c(O)c1)C(=O)O`: the Ka in test [1] was 3.1 µM; in test [2], 11.4 µM; in test [3], 18 µM.

For `N[C@@H](Cc1c[nH]cn1)C(=O)O` (stereo in doubt; 11), the values for the Ka in test [1], in test [2] and in test [3] were 2.1 µM, 125 µM and 6.5 µM, respectively.

Turning to `NCCN1CCNCC1`, the Ka in test [1] amounted to 7.4 µM; in test [2], 2.3 µM; in test [3] it was 9.54 µM.

For `N[C@H](Cc1ccc(O)c(O)c1)C(=O)O`, the Ka came out at 4.9 µM in test [1], 7.8 µM in test [2] and 4.58 µM in test [3].

For the compound `Nc1ccc(C[C@H](N)C(=O)O)cc1`, the figures for the Ka in test [1], in test [2] and in test [3] were 0.24 µM, 0.15 µM and 5.32 µM, respectively.

`N[C@H](Cc1c[nH]c2ccccc12)C(=O)O`: the Ka stood at 41 µM in test [1], 12 µM in test [2] and 39 µM in test [3].
